Laboratory results: PMC4237513 (European Journal of Medicinal Chemistry, 2014)
Read-outs that look alike come from different tables or passages of the source.

Columns and labels:
dengue virus (DENV) = experiment: microbe, parasite or virus in culture; type: cell-based; details: for EC50: read-out: Dengue EC50
in vitro = details: chlorocebus sabaeus
yellow fever virus (YFV) = experiment: microbe, parasite or virus in culture; type: cell-based; details: for EC50: read-out: Yellow fever EC50
[1] = Yellow fever virus, Vero B, 168 h

SMILES | EC50 (dengue virus (DENV); Dengue virus, Vero B, 168 h) | CC50 (in vitro; Dengue CC50) | CC50 (in vitro; Yellow fever CC50) | EC50 (yellow fever virus (YFV); [1]) | further results
Cc1ccc(NC(=O)c2nc[nH]c2C(=O)Nc2ccc(F)cc2)c(-c2cc(C)n[nH]2)c1 [15a, N^5-(4-fluorophenyl)-N^4-(4-methyl-2-(3-methyl-1H-pyrazol-5-yl)phenyl)-1H-imidazole-4,5-dicarboxamide] | 2.5 µM | > 120 µM | > 120 µM | 3.37 µM | EC50 (yellow fever virus (YFV)): 3.47 µM
Cc1cc(-c2ccccc2NC(=O)c2nc[nH]c2C(=O)Nc2ccc(F)cc2)[nH]n1 [15b, N^5-(4-fluorophenyl)-N^4-(2-(3-methyl-1H-pyrazol-5-yl)phenyl)-1H-imidazole-4,5-dicarboxamide] | 6.03 µM | – | > 121 µM | 1.85 µM | CC50 at 168 h (in vitro; Dengue CC50): 21.7 µM
O=C(NCc1ccccc1-c1ccncc1)c1nc[nH]c1C(=O)Nc1ccc(F)cc1 [15c, N^5-(4-fluorophenyl)-N^4-(2-(pyridin-4-yl)benzyl)-1H-imidazole-4,5-dicarboxami-de] | 1.92 µM | – | > 120 µM | 3.9 µM | EC50 (dengue virus (DENV)): 1.93 µM; CC50 at 168 h (in vitro; Dengue CC50): 50.1 µM
O=C(NCc1ccccc1-c1ccsc1)c1nc[nH]c1C(=O)Nc1ccc(F)cc1 [15d, N^5-(4-fluorophenyl)-N^4-(2-(thiophen-3-yl)benzyl)-1H-imidazole-4,5-dicarbox amide] | 8.88 µM | – | – | 2.61 µM | CC50 at 168 h (in vitro; Dengue CC50): 17.3 µM; CC50 at 168 h (in vitro; Yellow fever CC50): 34.5 µM
O=C(NCc1ccc(-c2cccnc2)cc1)c1nc[nH]c1C(=O)Nc1ccc(F)cc1 [15e, N^5-(4-fluorophenyl)-N^4-(4-(pyridin-3-yl)benzyl)-1H-imidazole-4,5-dicarboxamide] | 42.1 µM | > 120 µM | > 118 µM | 11.8 µM | –
O=C(NCc1ccc(-c2ccsc2)cc1)c1nc[nH]c1C(=O)Nc1ccc(F)cc1 [15f, N^5-(4-fluorophenyl)-N^4-(4-(thiophen-3-yl)benzyl)-1H-imidazole-4,5-dicarboxamide] | 33.7 µM | – | > 119 µM | 28.8 µM | CC50 at 168 h (in vitro; Dengue CC50): 20.2 µM
O=C(NCc1ccc(-c2ccncc2)cc1)c1nc[nH]c1C(=O)Nc1ccc(F)cc1 [15g, N^5-(4-fluorophenyl)-N^4-(4-(pyridin-4-yl)benzyl)-1H-imidazole-4,5-dicarboxamide] | > 120 µM | > 120 µM | > 120 µM | > 120 µM | –
Cc1ccc(NC(=O)c2nc[nH]c2C(=O)Nc2ccc(F)cc2)c(-c2ccsc2)c1 [15h, N^5-(4-fluorophenyl)-N^4-(4-methyl-2-(thiophen-3-yl)phenyl)-1H-imidazole-4,5-dicarboxamide] | 48.8 µM | > 117 µM | > 119 µM | > 119 µM | –
Cc1ccc(NC(=O)c2nc[nH]c2C(=O)Nc2ccc(F)cc2)c(-c2ccco2)c1 [15i, N^5-(4-fluorophenyl)-N^4-(2-(furan-2-yl)-4-methylphenyl)-1H-imidazole-4,5-dicarboxamide] | > 124 µM | > 124 µM | – | – | –
Cc1ccc(NC(=O)c2nc[nH]c2C(=O)Nc2ccccc2)c(-c2ccsc2)c1 [15j, N^4-(4-methyl-2-(thiophen-3-yl)phenyl)-N^5-phenyl-1H-imidazole-4,5-dicarboxamide] | > 124 µM | > 124 µM | > 120 µM | 9.2 µM | –
Cc1ccc(NC(=O)c2[nH]cnc2C(=O)Nc2ccc(C)cc2-c2ccsc2)cc1 [15k, N^4-(4-methyl-2-(thiophen-3-yl)phenyl)-N^5-(p-tolyl)-1H-imidazole-4,5-dicarboxamide] | 2.02 µM | > 50 µM | > 120 µM | > 120 µM | –
Cc1ccc(NC(=O)c2[nH]cnc2C(=O)Nc2ccc(C)cc2-c2ccco2)cc1 [15l, N^4-(2-(furan-2-yl)-4-methylphenyl)-N^5-(p-tolyl)-1H-imidazole-4,5-dicarboxamide] | 3.47 µM | > 125 µM | – | – | –
Cc1ccc(NC(=O)c2nc[nH]c2C(=O)NCc2ccccc2)c(-c2ccco2)c1 [15m, N^5-benzyl-N^4-(2-(furan-2-yl)-4-methylphenyl)-1H-imidazole-4,5-dicarboxamide] | > 125 µM | > 125 µM | – | – | DENV inhibitory activity in words (dengue virus (DENV)): annihilated the inhibitory properties
Cc1ccc(NC(=O)c2nc[nH]c2C(=O)NCCc2ccc(F)cc2)c(-c2ccco2)c1 [15n, N^5-(4-fluorophenethyl)-N^4-(2-(furan-2-yl)-4-methylphenyl)-1H-imidazole-4,5-dicarboxamide] | 3.77 µM | > 116 µM | – | – | –
Cc1cnc(NC(=O)c2[nH]cnc2C(=O)Nc2ccccc2)c(-c2ccc(C)s2)c1 [15o, N^5-(5-methyl-3-(5-methylthiophen-2-yl)pyridin-2-yl)-N^4-phenyl-1H-imidazole-4,5-dicarboxamide] | > 120 µM | – | > 119 µM | > 120 µM | DENV inhibitory activity in words (dengue virus (DENV)): inactive; CC50 at 168 h (in vitro; Dengue CC50): 26.4 µM
O=C(NCc1ccc(-c2ccncc2)cc1)c1nccnc1C(=O)Nc1ccc(F)cc1 [20a, N^2-(4-fluorophenyl)-N^3-(4-(pyridin-4-yl)benzyl) pyrazine-2,3-dicarboxamide] | 0.93 µM | > 118 µM | > 120 µM | 7.49 µM | fold increase in anti-DENV potency (dengue virus (DENV)): 2 fold
Cc1ccc(NC(=O)c2nccnc2C(=O)Nc2ccc(F)cc2)c(-c2cccnc2)c1 [20b, N^2-(4-fluorophenyl)-N^3-(4-methyl-2-(pyridin-3-yl)phenyl) pyrazine-2,3-dicarboxamide] | 0.93 µM | > 118 µM | > 118 µM | 13.1 µM | DENV inhibitory activity in words (dengue virus (DENV)): strongly inhibiting
O=C(NCc1ccc(-c2cccnc2)cc1)c1nccnc1C(=O)Nc1ccc(F)cc1 [20c, N^2-(4-fluorophenyl)-N^3-(4-(pyridin-3-yl)benzyl) pyrazine-2,3-dicarboxamide] | 2.99 µM | > 115 µM | > 116 µM | 8.9 µM | –
O=C(Nc1ccc(F)cc1)c1nccnc1C(=O)Nc1ccccc1-c1ccncc1 [20d, N^2-(4-fluorophenyl)-N^3-(2-(pyridin-4-yl)phenyl) pyrazine-2,3-dicarboxamide] | 11.7 µM | > 117 µM | > 123 µM | 8.22 µM | –
O=C(Nc1ccc(F)cc1)c1nccnc1C(=O)Nc1ccccc1-c1cccnc1 [20e, N^2-(4-fluorophenyl)-N^3-(2-(pyridin-3-yl)phenyl) pyrazine-2,3-dicarboxamide] | 23.2 µM | > 120 µM | > 119 µM | 47.5 µM | –
O=C(NCc1ccccc1-c1ccncc1)c1nccnc1C(=O)Nc1ccc(F)cc1 [20f, N^2-(4-fluorophenyl)-N^3-(2-(pyridin-4-yl)benzyl) pyrazine-2,3-dicarboxamide] | 40.7 µM | > 118 µM | > 127 µM | 21.3 µM | fold decrease in activity against DENV (dengue virus (DENV)): 20 fold; fold decrease in activity against YFV (yellow fever virus (YFV)): 6 fold
Cc1ccc(NC(=O)c2nccnc2C(=O)Nc2ccc(F)cc2)c(-c2ccncc2)c1 [20g, N^2-(4-fluorophenyl)-N^3-(4-methyl-2-(pyridin-4-yl)phenyl)pyrazine-2,3-dicarbox amide] | > 117 µM | > 117 µM | > 125 µM | 48.4 µM | –
Cc1ccc(NC(=O)c2nccnc2C(=O)NCc2ccc(-c3ccncc3)cc2)cc1 [20h, N^2-(4-(pyridin-4-yl)benzyl)-N^3-(p-tolyl) pyrazine-2,3-dicarboxamide] | 16.6 µM | – | > 110 µM | 36.8 µM | CC50 at 168 h (in vitro; Dengue CC50): 74.7 µM
Cc1ccc(NC(=O)c2nccnc2C(=O)Nc2ccc(C)cc2-c2cccnc2)cc1 [20i, N^2-(4-methyl-2-(pyridin-3-yl)phenyl)-N^3-(p-tolyl) pyrazine-2,3-dicarboxamide] | 10.6 µM | – | – | 18.4 µM | CC50 at 168 h (in vitro; Dengue CC50): 47.5 µM; CC50 at 168 h (in vitro; Yellow fever CC50): 75.5 µM
Cc1ccc(NC(=O)c2nccnc2C(=O)NCc2ccc(-c3cccnc3)cc2)cc1 [20j, N^2-(4-(pyridin-3-yl)benzyl)-N^3-(p-tolyl) pyrazine-2,3-dicarboxamide] | 6.75 µM | > 116 µM | > 124 µM | 73.1 µM | –
Cc1ccc(NC(=O)c2nccnc2C(=O)Nc2ccccc2-c2ccncc2)cc1 [20k, N^2-(2-(pyridin-4-yl)phenyl)-N^3-(p-tolyl) pyrazine-2,3-dicarboxamide] | 4.71 µM | > 122 µM | > 125 µM | 12.5 µM | –
Cc1ccc(NC(=O)c2nccnc2C(=O)Nc2ccccc2-c2cccnc2)cc1 [20l, N^2-(2-(pyridin-3-yl)phenyl)-N^3-(p-tolyl) pyrazine-2,3-dicarboxamide] | 14.6 µM | > 128 µM | > 122 µM | > 122 µM | –
Cc1ccc(NC(=O)c2nccnc2C(=O)Nc2ccc(C)cc2-c2ccncc2)cc1 [20n, N^2-(4-methyl-2-(pyridin-4-yl)phenyl)-N^3-(p-tolyl) pyrazine-2,3-dicarboxamide] | 11.9 µM | > 119 µM | > 118 µM | 30.9 µM | –
